In patent US11339419B2, “Scavenger protein(s) for improved preservation of analyte detection sensor(s) and method(s) of use thereof” (Siemens Healthcare Diagnostics Inc., priority 2017, dated 2022):
Where “and” joins values, the source holds several entries; their conditions need not be identical. Identical values can stand only once.

System: creatininase (Toyobo)
Experiment: Toyobo Creatininase Enzyme Absorbance with BSA and MIT
Type: biochemical
[1] = Day 0, 100 ppm MIT, 5 mg/mL BSA
[2] = Day 0, 100 ppm MIT, 25 mg/mL BSA
[3] = Day 0, 100 ppm MIT, 50 mg/mL BSA
[4] = Day 4, 50 ppm MIT, 25 mg/mL BSA
[5] = Day 4, 50 ppm MIT, 50 mg/mL BSA
[6] = Day 4, 100 ppm MIT, 5 mg/mL BSA
[7] = Day 4, 100 ppm MIT, 25 mg/mL BSA
[8] = Day 4, 100 ppm MIT, 50 mg/mL BSA
[9] = Day 14, 50 ppm MIT, 5 mg/mL BSA
[10] = Day 14, 50 ppm MIT, 25 mg/mL BSA
[11] = Day 14, 50 ppm MIT, 50 mg/mL BSA
[12] = Day 14, 100 ppm MIT, 5 mg/mL BSA
[13] = Day 14, 100 ppm MIT, 25 mg/mL BSA
[14] = Day 14, 100 ppm MIT, 50 mg/mL BSA

From the text: Absorbance measurements of the creatininase enzyme(s) were taken via spectrophotometer for each aqueous solution (represented as columns 1-5 in Tables 5-8—column 6 is a blank), the absorbance being directly proportional to the enzyme activity being measured-which for Tables 5-8 is creatininase enzyme activity. Accordingly, the higher the absorbance measurement, the higher the enzyme activity of creatininase. Columns 7-11 represent five replicate readings in which the solution only contains BSA (i.e., there is no biocide(s) present in the solution). In addition, the mean values, standard deviations, and coefficients of variation are all presented for the enzyme activity/absorbance of each aqueous solution. All measurements were taken at 37° C.
As depicted in Table 6, creatininase (commercially offered for sale by Toyobo) enzyme activity is measured against various concentrations of MIT (biocide) and BSA (scavenger protein) over a period of 14 days (with absorbance measurement taken at 0, 4, and 14 days) for five different aqueous solutions (represented as columns 1-5—column 6 is a blank).

% Bias (Day 0, 100 ppm MIT vs no MIT, 5 mg/mL BSA): 7.6% | % Bias (Day 0, 100 ppm MIT vs no MIT, 25 mg/mL BSA): 10.4% | % Bias (Day 0, 100 ppm MIT vs no MIT, 50 mg/mL BSA): 10.1% | MEAN [1]: 0.66 | MEAN [2]: 0.63 | MEAN [3]: 0.60 | MEAN (columns 7-11) (Day 4, 5 mg/mL BSA, no MIT (row of 50 ppm MIT)): 0.81 | MEAN (columns 7-11) (Day 4, 5 mg/mL BSA, no MIT (row of 100 ppm MIT)): 0.77 | MEAN (columns 7-11) (Day 4, 25 mg/mL BSA, no MIT (row of 50 ppm MIT)): 0.64 | MEAN (columns 7-11) (Day 4, 25 mg/mL BSA, no MIT (row of 100 ppm MIT)): 0.62 | MEAN (columns 7-11) (Day 4, 50 mg/mL BSA, no MIT (row of 50 ppm MIT)): 0.52 | MEAN (columns 7-11) (Day 4, 50 mg/mL BSA, no MIT (row of 100 ppm MIT)): 0.51 | % Bias (Day 4, 50 ppm MIT vs no MIT, 5 mg/mL BSA): −0.2% | % Bias (Day 4, 50 ppm MIT vs no MIT, 25 mg/mL BSA): 1.5% | % Bias (Day 4, 50 ppm MIT vs no MIT, 50 mg/mL BSA): 1.9% | MEAN (Day 4, 50 ppm MIT, 5 mg/mL BSA): 0.81 | MEAN [4]: 0.65 | MEAN [5]: 0.53 | % Bias (Day 4, 100 ppm MIT vs no MIT, 5 mg/mL BSA): 2.2% | % Bias (Day 4, 100 ppm MIT vs no MIT, 25 mg/mL BSA): 5.6% | % Bias (Day 4, 100 ppm MIT vs no MIT, 50 mg/mL BSA): 7.0% | MEAN [6]: 0.79 | MEAN [7]: 0.65 | MEAN [8]: 0.54 | MEAN (columns 7-11) (Day 14, 5 mg/mL BSA, no MIT (row of 50 ppm MIT)): 0.90 | MEAN (columns 7-11) (Day 14, 5 mg/mL BSA, no MIT (row of 100 ppm MIT)): 0.87 | MEAN (columns 7-11) (Day 14, 25 mg/mL BSA, no MIT (row of 50 ppm MIT)): 0.70 | MEAN (columns 7-11) (Day 14, 25 mg/mL BSA, no MIT (row of 100 ppm MIT)): 0.72 | MEAN (columns 7-11) (Day 14, 50 mg/mL BSA, no MIT (row of 50 ppm MIT)): 0.55 | MEAN (columns 7-11) (Day 14, 50 mg/mL BSA, no MIT (row of 100 ppm MIT)): 0.56 | % Bias (Day 14, 50 ppm MIT vs no MIT, 5 mg/mL BSA): −1.7% | % Bias (Day 14, 50 ppm MIT vs no MIT, 25 mg/mL BSA): 10.4% | % Bias (Day 14, 50 ppm MIT vs no MIT, 50 mg/mL BSA): 3.9% | MEAN [9]: 0.88 | MEAN [10]: 0.77 | MEAN [11]: 0.57 | % Bias (Day 14, 100 ppm MIT vs no MIT, 5 mg/mL BSA): 4.1% | % Bias (Day 14, 100 ppm MIT vs no MIT, 25 mg/mL BSA): 3.3% | % Bias (Day 14, 100 ppm MIT vs no MIT, 50 mg/mL BSA): 6.0% | MEAN [12]: 0.91 | MEAN [13]: 0.75 | MEAN [14]: 0.60 | absorbance of the creatininase enzyme compared to samples containing 0 mg/mL of BSA (days 4 and 14, 5, 25 and 50 mg/mL BSA, with MIT): increased absorbance | creatininase absorbance, solutions 7-11 (days 4 and 14, only BSA, no MIT): increased (or at least maintained) | BSA concentration at which the creatininase absorbance measurement is highest (days 4 and 14, with MIT): 5 mg/mL
Substance: bovine serum albumin [BSA]
Creatininase Enzyme Absorbance [1]: 0.922 and 0.849 and 0.843 and 0.844 and 0.859 | Creatininase Enzyme Absorbance [2]: 0.905 and 0.838 and 0.807 and 0.795 and 0.811 | Creatininase Enzyme Absorbance [3]: 0.867 and 0.794 and 0.799 and 0.792 and 0.771 | Creatininase Enzyme Absorbance (Day 4, 50 ppm MIT, 5 mg/mL BSA): 1.031 and 0.998 and 1.012 and 1.044 and 1.01 | Creatininase Enzyme Absorbance [4]: 0.867 and 0.847 and 0.853 and 0.878 and 0.873 | Creatininase Enzyme Absorbance [5]: 0.737 and 0.728 and 0.749 and 0.75 and 0.765 | Creatininase Enzyme Absorbance [6]: 0.998 and 0.974 and 1.006 and 1.008 and 1.031 | Creatininase Enzyme Absorbance [7]: 0.871 and 0.863 and 0.869 and 0.86 and 0.866 | Creatininase Enzyme Absorbance [8]: 0.773 and 0.775 and 0.754 and 0.734 and 0.742 | Creatininase Enzyme Absorbance [9]: 1.13 and 1.104 and 1.098 and 1.12 and 1.117 | Creatininase Enzyme Absorbance [10]: 1.021 and 0.986 and 0.982 and 1.025 and 0.996 | Creatininase Enzyme Absorbance [11]: 0.814 and 0.793 and 0.789 and 0.796 and 0.804 | Creatininase Enzyme Absorbance [12]: 1.155 and 1.123 and 1.105 and 1.133 and 1.156 | Creatininase Enzyme Absorbance [13]: 0.997 and 0.966 and 0.95 and 0.992 and 0.976 | Creatininase Enzyme Absorbance [14]: 0.854 and 0.822 and 0.792 and 0.828 and 0.832
